# According to patent US20230034660A1, “PEPTIDES THAT ENHANCE NMDA RECEPTOR FUNCTION AND USE THEREOF” (University of Pittsburgh - Of the Commonwealth System of …, priority 2019, published 2023):
# Target: T1, ZnT1 binding to GluN2A C-terminal peptide sequences (Mus musculus, UniProt Q60738)
# T1 construct: made in house; peptides: Fmoc spot synthesis on nitrocellulose
# T1 sequence (Q60738 1-503): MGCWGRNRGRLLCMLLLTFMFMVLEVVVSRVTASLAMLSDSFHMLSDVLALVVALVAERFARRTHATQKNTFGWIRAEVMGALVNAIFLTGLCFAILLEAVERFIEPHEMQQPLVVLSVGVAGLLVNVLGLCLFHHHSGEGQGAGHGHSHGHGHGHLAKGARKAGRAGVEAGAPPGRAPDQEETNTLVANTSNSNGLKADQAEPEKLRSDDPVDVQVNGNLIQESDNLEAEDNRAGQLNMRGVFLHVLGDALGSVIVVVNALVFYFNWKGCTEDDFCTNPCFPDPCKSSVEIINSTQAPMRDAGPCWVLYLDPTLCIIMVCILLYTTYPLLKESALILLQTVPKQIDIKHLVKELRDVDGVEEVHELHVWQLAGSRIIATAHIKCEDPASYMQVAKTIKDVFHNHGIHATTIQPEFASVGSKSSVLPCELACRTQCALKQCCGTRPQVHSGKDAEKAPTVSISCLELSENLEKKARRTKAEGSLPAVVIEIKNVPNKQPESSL
# Experiment: Peptide spot array repeated in the presence of N2AZ or scN2AZ
# Conditions: 100 μM, compared to scN2AZ control
# Description: FIG. 2: N2AZ reduces ZnT1 binding to GluN2A C-terminal peptide sequences. Quantification of peptide spot arrays of GluN2A C-terminus region (residues 1390-1464) using the same peptide segments as FIG. 1B (Peptides 1-61 correspond to fragments of SEQ ID NO: 21, as listed in Table 1). […] Mean±SEM (n=4). (Inset) Representative peptide spot-array in scN2AZ (top) and N2AZ (bottom).
# Far-Western protein-binding affinity assays were performed as previously described (Brittain et al., 2011; Yeh et al., 2017) (Moutal et al., 2017). Peptide spot arrays (15 mers) spanning the proximal C-terminus residues 1390-1464 of mouse GluN2A (Uniprot# P35436) in overlapping 1 aa steps were constructed using the Spots-synthesis method. Standard 9-fluorenylmethoxy carbonyl (Fmoc) chemistry was used to synthesize the peptides and spot them onto nitrocellulose membranes pre-derivatized with a polyethylene glycerol spacer (Intavis). […] Finally, the membrane was incubated in secondary antibody for 45 minutes, washed 3 times for 5 minutes in TBST, and visualized by infrared fluorescence (Li-Cor). […]
# To study the effect of ZnT1 on NMDAR modulation, a peptide was designed to disrupt the ZnT1-GluN2A interaction. […] Next, the peptide spot arrays were probed with flag-tagged ZnT1-enriched cell lysates and ZnT1 binding was visualized and quantified with immunofluorescence against the flag tag (FIG. 1A). […]
sequence,measurement,value
NDSYLRSSL [Peptide N2AZ],ZnT1 binding to the spot array in the presence of peptide,significantly reduced
